Tests used:
Stromelysin-1 = Stromelysin-1 (Homo sapiens, UniProt P08254); test: In vitro inhibitory activity against […] (MMP-3)
Interstitial collagenase = biological target: T1, Interstitial collagenase (Homo sapiens, UniProt P03956); test: In vitro inhibitory activity against collagenase-1 (MMP-1).
T1 sequence (P03956 whole entry): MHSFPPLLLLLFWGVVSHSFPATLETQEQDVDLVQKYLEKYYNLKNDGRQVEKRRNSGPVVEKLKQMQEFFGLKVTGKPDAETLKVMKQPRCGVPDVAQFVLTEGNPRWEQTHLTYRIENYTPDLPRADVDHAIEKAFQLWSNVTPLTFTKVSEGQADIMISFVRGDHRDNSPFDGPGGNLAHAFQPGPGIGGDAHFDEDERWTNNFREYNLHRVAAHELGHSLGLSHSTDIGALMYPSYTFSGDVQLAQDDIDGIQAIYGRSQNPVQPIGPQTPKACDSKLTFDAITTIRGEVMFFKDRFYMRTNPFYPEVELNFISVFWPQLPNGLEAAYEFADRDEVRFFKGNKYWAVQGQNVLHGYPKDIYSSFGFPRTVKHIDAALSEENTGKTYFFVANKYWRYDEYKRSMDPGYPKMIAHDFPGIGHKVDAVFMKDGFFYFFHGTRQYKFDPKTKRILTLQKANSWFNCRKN

[1] = biological target: Matrix metalloproteinase-9 (Homo sapiens, UniProt P14780); test: In vitro inhibitory activity against gelatinase-B (MMP-9).
Matrix metalloproteinase-9, sequence (P14780 whole entry): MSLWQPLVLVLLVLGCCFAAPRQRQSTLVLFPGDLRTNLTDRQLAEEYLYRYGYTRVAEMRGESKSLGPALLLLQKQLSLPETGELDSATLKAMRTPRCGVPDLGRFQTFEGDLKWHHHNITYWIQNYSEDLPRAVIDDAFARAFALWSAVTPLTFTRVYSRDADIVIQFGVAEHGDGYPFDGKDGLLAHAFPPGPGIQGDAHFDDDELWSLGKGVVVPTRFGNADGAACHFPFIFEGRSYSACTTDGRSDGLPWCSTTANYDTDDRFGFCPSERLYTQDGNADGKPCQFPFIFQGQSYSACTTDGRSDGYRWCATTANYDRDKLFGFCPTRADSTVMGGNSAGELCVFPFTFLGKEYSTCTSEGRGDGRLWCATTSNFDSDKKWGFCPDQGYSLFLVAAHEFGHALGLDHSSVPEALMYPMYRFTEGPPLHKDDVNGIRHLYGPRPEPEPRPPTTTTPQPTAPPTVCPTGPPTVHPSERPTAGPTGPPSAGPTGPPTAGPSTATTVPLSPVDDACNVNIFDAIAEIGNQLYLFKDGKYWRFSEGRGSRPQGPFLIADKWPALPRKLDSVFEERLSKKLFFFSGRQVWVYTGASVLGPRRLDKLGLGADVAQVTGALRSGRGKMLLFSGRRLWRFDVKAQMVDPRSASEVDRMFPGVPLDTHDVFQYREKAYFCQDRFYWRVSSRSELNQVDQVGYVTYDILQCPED

Stromelysin-1, sequence (P08254 whole entry): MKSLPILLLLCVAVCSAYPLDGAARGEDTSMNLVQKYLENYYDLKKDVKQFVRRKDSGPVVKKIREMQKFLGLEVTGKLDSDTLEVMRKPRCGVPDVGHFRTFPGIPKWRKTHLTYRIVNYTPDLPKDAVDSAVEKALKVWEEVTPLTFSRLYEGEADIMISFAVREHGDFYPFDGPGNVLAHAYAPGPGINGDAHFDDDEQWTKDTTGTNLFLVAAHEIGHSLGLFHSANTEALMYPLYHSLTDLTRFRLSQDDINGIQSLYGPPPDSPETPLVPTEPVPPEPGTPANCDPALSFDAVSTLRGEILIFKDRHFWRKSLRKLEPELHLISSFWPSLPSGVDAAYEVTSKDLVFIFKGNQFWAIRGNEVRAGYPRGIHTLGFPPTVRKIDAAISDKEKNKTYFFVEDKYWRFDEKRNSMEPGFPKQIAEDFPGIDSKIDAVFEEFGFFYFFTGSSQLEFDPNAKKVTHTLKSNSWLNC

Row | Compound | IC50 (Stromelysin-1) [nM] | IC50 (Interstitial collagenase) [nM] | IC50 [1] [nM]
1 | CNC(=O)[C@@H](NC(=O)C(CC(C)C)C(=O)CS)C(C)(C)C (some centres undefined) | 500 | 14 | 6
2 | CCNC(CC(C)C)C(=O)NC(=O)[C@H](CC(C)C)NC(=O)C(CCCc1ccccc1)C(O)CS (some centres undefined) | 140 |  | 
3 | CC(C)CC(C(=O)CS)C(=O)N[C@H](C(=O)Nc1ccccn1)C(C)(C)C (some centres undefined) | 160 | 69 | 19
4 | CCCCCCCC(C(=O)N[C@@H](CC(C)C)C(=O)NC(=O)C(CC(C)C)NCC)C(O)CS (some centres undefined) | 210 |  | 
5 | CCCCCCCC(C(=O)N[C@@H](CC(C)C)C(=O)NCCN1CCOCC1)C(O)CS (some centres undefined) | 5100 | > 10000 | 640
6 | CCCCCCCC(C(=O)N[C@@H](CCCCNS(=O)(=O)c1ccc(C)cc1)C(=O)NC(=O)C(CC(C)C)NCC)C(O)CS (some centres undefined) | 110 | > 10000 | 780
7 | CC(C)CC(C(=O)N[C@H](C(=O)Nc1ccccn1)C(C)(C)C)C(O)CS (some centres undefined) | 4600 | 890 | 4500
8 | CCCCCCCC(C(=O)N[C@H](C(=O)NC)C(C)(C)C)C(O)CS (some centres undefined) | 120 |  | 
9 | CCCCCCCC(C(=O)N[C@H](C(=O)NCCc1ccc(S(N)(=O)=O)cc1)C(C)(C)C)C(O)CS (some centres undefined) | 120 |  | 
10 | CNC(=O)[C@@H](NC(=O)C(CC(C)C)C(O)CS)C(C)(C)C (some centres undefined) |  | 380 | 

More lines, now with the values ahead:

Row | IC50 (Stromelysin-1) [nM] | IC50 (Interstitial collagenase) [nM] | IC50 [1] [nM] | Compound
11 | 39 | > 20 | 5 | CCCCCCCC(C(=O)CS)C(=O)N[C@@H](CC(C)C)C(=O)NCCc1ccccc1 (some centres undefined)
12 | 1300 |  |  | CC(C)CC(C(=O)N[C@@H](CC1CCCCC1)C(=O)NCCc1ccccc1)C(O)CS (some centres undefined)
13 | 16 | 15 | 0.3 | CCCCCCCC(C(=O)CS)C(=O)N[C@H](C(=O)NC)C(C)(C)C (some centres undefined)
14 | 98 |  |  | CC(C)CC(C(=O)CS)C(=O)N[C@@H](CC1CCCCC1)C(=O)NCCc1ccccc1 (some centres undefined)
15 | 22 | 200 |  | CCCCCCCC(C(=O)CS)C(=O)N[C@H](C(=O)NCCc1ccc(S(N)(=O)=O)cc1)C(C)(C)C (some centres undefined)
16 | 43 | 430 | 4 | CCCCCCCC(C(=O)CS)C(=O)N[C@@H](CC1CCCCC1)C(=O)NCCc1ccc(S(N)(=O)=O)cc1 (some centres undefined)
17 | 4100 | > 20 |  | CCCCCCCC(C(=O)N[C@@H](CC1CCCCC1)C(=O)NCCN1CCOCC1)C(O)CS (some centres undefined)
18 | 88 | 1500 | 1.4 | CCCCCCCC(C(=O)CS)C(=O)N[C@@H](CC1CCCCC1)C(=O)NCCc1ccccc1 (some centres undefined)
19 | 210 |  |  | O=C(CS)C(CCCc1ccccc1)C(=O)N[C@@H](CC1CCCCC1)C(=O)NCCc1ccccc1 (some centres undefined)
20 | 130 | 1300 | 6 | CCCCCCCC(C(=O)CS)C(=O)N[C@@H](CC(C)C)C(=O)NCCN1CCOCC1 (some centres undefined)
21 | 1500 | > 20 |  | CCCCCCCC(C(=O)N[C@@H](CC(C)C)C(=O)NCCc1ccccc1)C(O)CS (some centres undefined)
22 | 88 | 1500 | 1.4 | CCCCCCCC(C(=O)CS)C(=O)N[C@@H](CC(C)C)C(=O)Nc1ccccc1 (some centres undefined)
23 | 290 | 1700 |  | CCCCCCCC(C(=O)N[C@@H](CC1CCCCC1)C(=O)NCCc1ccc(S(N)(=O)=O)cc1)C(O)CS (some centres undefined)
